Assay: Urinary excretion study in rats after oral NS, SF or CNS (LC–MS/MS)
Type: in vivo
Conditions: for concentration at 2 h / concentration at 4 h / concentration at 8 h / concentration at 12 h / concentration at 24 h / concentration at 36 h / concentration at 48 h / concentration at 72 h / concentration at 96 h / concentration at 120 h / concentration at 6 h: male, Sprague Dawley, rat, urine, oral; for Accumulative excretion amount / Accumulative excretion percentage / Excretion amount: rat urine
Summary of the method: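 Analytes were quantified by UFLC with negative electrospray MRM detection in urine collected up to 120 h. Doses were oral: 60 mg/kg NS, 50 mg/kg SF, or the combination, each to six fasted male rats. Results are reported as % cumulative excretion relative to the amount ingested.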

concentration at 2 h (60 mg/kg, oral NS 60 mg/kg, 2 h): 115 ± 284 ng/mL
concentration at 4 h (60 mg/kg, oral NS 60 mg/kg, 4 h): 245 ± 450 ng/mL
concentration at 8 h (60 mg/kg, oral NS 60 mg/kg, 8 h): 140 ± 196 ng/mL
concentration at 12 h (60 mg/kg, oral NS 60 mg/kg, 12 h): 214 ± 344 ng/mL
concentration at 24 h (60 mg/kg, oral NS 60 mg/kg, 24 h): 240 ± 553 ng/mL
concentration at 36 h (60 mg/kg, oral NS 60 mg/kg, 36 h): 61 ± 54 ng/mL
concentration at 48 h (60 mg/kg, oral NS 60 mg/kg, 48 h): 142 ± 344 ng/mL
concentration at 72 h (60 mg/kg, oral NS 60 mg/kg, 72 h): 84 ± 195 ng/mL
concentration at 96 h (60 mg/kg, oral NS 60 mg/kg, 96 h): 45 ± 104 ng/mL
concentration at 120 h (60 mg/kg, oral NS 60 mg/kg, 120 h): 25 ± 62 ng/mL
concentration at 2 h (oral CNS 110 mg/kg, 2 h): 54 ± 73 ng/mL
concentration at 4 h (oral CNS 110 mg/kg, 4 h): 27 ± 41 ng/mL
concentration at 6 h (oral CNS 110 mg/kg, 6 h): 111 ± 121 ng/mL
concentration at 8 h (oral CNS 110 mg/kg, 8 h): 105 ± 100 ng/mL
concentration at 12 h (oral CNS 110 mg/kg, 12 h): 120 ± 134 ng/mL
concentration at 24 h (oral CNS 110 mg/kg, 24 h): 72 ± 50 ng/mL
concentration at 36 h (oral CNS 110 mg/kg, 36 h): 138 ± 144 ng/mL
concentration at 48 h (oral CNS 110 mg/kg, 48 h): 51 ± 60 ng/mL
concentration at 72 h (oral CNS 110 mg/kg, 72 h): 33 ± 28 ng/mL
concentration at 96 h (oral CNS 110 mg/kg, 96 h): 19 ± 14 ng/mL
concentration at 120 h (oral CNS 110 mg/kg, 120 h): 14 ± 12 ng/mL
concentration at 6 h (oral NS 60 mg/kg, 6 h): 140 ± 244 ng/mL
Accumulative excretion amount (oral CNS 110 mg/kg, 2 h): 0.075 ± 0.093 µg
Accumulative excretion percentage (oral CNS 110 mg/kg, 2 h): 0.002±0.002%
Excretion amount (oral CNS 110 mg/kg, 2 h): 0.075 ± 0.093 µg
Accumulative excretion amount (oral CNS 110 mg/kg, 4 h): 0.106 ± 0.086 µg
Accumulative excretion percentage (oral CNS 110 mg/kg, 4 h): 0.003±0.002%
Excretion amount (oral CNS 110 mg/kg, 4 h): 0.044 ± 0.050 µg
Accumulative excretion amount (oral CNS 110 mg/kg, 6 h): 0.218 ± 0.166 µg
Accumulative excretion percentage (oral CNS 110 mg/kg, 6 h): 0.006±0.004%
Excretion amount (oral CNS 110 mg/kg, 6 h): 0.158 ± 0.142 µg
Accumulative excretion amount (oral CNS 110 mg/kg, 8 h): 0.339 ± 0.213 µg
Accumulative excretion percentage (oral CNS 110 mg/kg, 8 h): 0.009±0.006%
Excretion amount (oral CNS 110 mg/kg, 8 h): 0.212 ± 0.169 µg
Accumulative excretion amount (oral CNS 110 mg/kg, 12 h): 0.472 ± 0.310 µg
Accumulative excretion percentage (oral CNS 110 mg/kg, 12 h): 0.013±0.008%
Excretion amount (oral CNS 110 mg/kg, 12 h): 0.154 ± 0.128 µg
Accumulative excretion amount (oral CNS 110 mg/kg, 24 h): 0.859 ± 0.527 µg
Accumulative excretion percentage (oral CNS 110 mg/kg, 24 h): 0.023±0.014%
Excretion amount (oral CNS 110 mg/kg, 24 h): 0.388 ± 0.391 µg
Accumulative excretion amount (oral CNS 110 mg/kg, 36 h): 1.056 ± 0.587 µg
Accumulative excretion percentage (oral CNS 110 mg/kg, 36 h): 0.028±0.016%
Excretion amount (oral CNS 110 mg/kg, 36 h): 0.197 ± 0.129 µg
Accumulative excretion amount (oral CNS 110 mg/kg, 48 h): 1.303 ± 0.684 µg
Accumulative excretion percentage (oral CNS 110 mg/kg, 48 h): 0.035±0.018%
Excretion amount (oral CNS 110 mg/kg, 48 h): 0.247 ± 0.216 µg
Accumulative excretion amount (oral CNS 110 mg/kg, 72 h): 1.373 ± 0.705 µg
Accumulative excretion percentage (oral CNS 110 mg/kg, 72 h): 0.037±0.019%
Excretion amount (oral CNS 110 mg/kg, 72 h): 0.070 ± 0.060 µg
Accumulative excretion amount (oral CNS 110 mg/kg, 96 h): 1.414 ± 0.715 µg
Accumulative excretion percentage (oral CNS 110 mg/kg, 96 h): 0.038±0.019%
Excretion amount (oral CNS 110 mg/kg, 96 h): 0.040 ± 0.031 µg
Accumulative excretion amount (oral CNS 110 mg/kg, 120 h): 1.436 ± 0.726 µg
Accumulative excretion percentage (oral CNS 110 mg/kg, 120 h): 0.038±0.019%
Excretion amount (oral CNS 110 mg/kg, 120 h): 0.022 ± 0.025 µg
Accumulative excretion amount (oral NS 60 mg/kg, 2 h): 0.075 ± 0.063 µg
Accumulative excretion percentage (oral NS 60 mg/kg, 2 h): 0.002±0.001%
Excretion amount (oral NS 60 mg/kg, 2 h): 0.075 ± 0.063 µg
Accumulative excretion amount (oral NS 60 mg/kg, 4 h): 0.574 ± 1.167 µg
Accumulative excretion percentage (oral NS 60 mg/kg, 4 h): 0.013±0.027%
Excretion amount (oral NS 60 mg/kg, 4 h): 0.872 ± 1.518 µg
Accumulative excretion amount (oral NS 60 mg/kg, 6 h): 0.798 ± 1.077 µg
Accumulative excretion percentage (oral NS 60 mg/kg, 6 h): 0.019±0.025%
Excretion amount (oral NS 60 mg/kg, 6 h): 0.262 ± 0.207 µg
Accumulative excretion amount (oral NS 60 mg/kg, 8 h): 0.863 ± 1.044 µg
Accumulative excretion percentage (oral NS 60 mg/kg, 8 h): 0.021±0.025%
Excretion amount (oral NS 60 mg/kg, 8 h): 0.152 ± 0.084 µg
Accumulative excretion amount (oral NS 60 mg/kg, 12 h): 1.139 ± 1.140 µg
Accumulative excretion percentage (oral NS 60 mg/kg, 12 h): 0.027±0.027%
Excretion amount (oral NS 60 mg/kg, 12 h): 0.276 ± 0.142 µg
Accumulative excretion amount (oral NS 60 mg/kg, 24 h): 1.881 ± 1.352 µg
Accumulative excretion percentage (oral NS 60 mg/kg, 24 h): 0.044±0.032%
Excretion amount (oral NS 60 mg/kg, 24 h): 0.742 ± 0.289 µg
Accumulative excretion amount (oral NS 60 mg/kg, 36 h): 2.275 ± 1.435 µg
Accumulative excretion percentage (oral NS 60 mg/kg, 36 h): 0.053±0.033%
Excretion amount (oral NS 60 mg/kg, 36 h): 0.394 ± 0.221 µg
Accumulative excretion amount (oral NS 60 mg/kg, 48 h): 2.476 ± 1.415 µg
Accumulative excretion percentage (oral NS 60 mg/kg, 48 h): 0.058±0.033%
Excretion amount (oral NS 60 mg/kg, 48 h): 0.201 ± 0.117 µg
Accumulative excretion amount (oral NS 60 mg/kg, 72 h): 2.506 ± 1.429 µg
Accumulative excretion percentage (oral NS 60 mg/kg, 72 h): 0.058±0.033%
Excretion amount (oral NS 60 mg/kg, 72 h): 0.030 ± 0.020 µg
Accumulative excretion amount (oral NS 60 mg/kg, 96 h): 2.521 ± 1.438 µg
Accumulative excretion percentage (oral NS 60 mg/kg, 96 h): 0.060±0.034%
Excretion amount (oral NS 60 mg/kg, 96 h): 0.016 ± 0.011 µg
Accumulative excretion amount (oral NS 60 mg/kg, 120 h): 2.528 ± 1.439 µg
Accumulative excretion percentage (oral NS 60 mg/kg, 120 h): 0.060±0.034%
Excretion amount (oral NS 60 mg/kg, 120 h): 0.006 ± 0.003 µg
SMILES: CC(C)=CCC[C@](C)(O[C@@H]1O[C@H](CO[C@@H]2O[C@H](CO)[C@@H](O)[C@H](O)[C@H]2O)[C@@H](O)[C@H](O)[C@H]1O)[C@H]1CC[C@]2(C)[C@@H]1[C@H](O)C[C@@H]1[C@@]3(C)CC[C@H](O[C@@H]4O[C@H](CO)[C@@H](O)[C@H](O)[C@H]4O[C@@H]4O[C@H](CO)[C@@H](O)[C@H](O)[C@H]4O)C(C)(C)[C@@H]3CC[C@]12C [ginsenoside Rb1]

Source: publication PMC6321168, “Comparative Study on Excretive Characterization of Main Components in Herb Pair Notoginseng-Safflower and Single Herbs by LC–MS/MS” (Pharmaceutics, 2018)
